Measurements: patent publication US20060204443A1, “Methods for tumor treatment using dendrimer conjugates” (The Government of the USA as represented by the Secretary …, priority 2005, published 2006)
Several values for one entry are separate records, joined by “and”; a condition that tells them apart may be missing. Equal values may be shown once.

System: Draining Lymph Nodes (LNs) from the Normal Breast Tissue
Assay: Dynamic micro-MR mammo-lymphangiography after injection into normal mammary gland (Example 1)
Type: in vivo, mice
Description: Mice were anesthetized with 1.15 mg sodium pentobarbital (Dainabot, Osaka, Japan), and then injected with 0.15-0.24 μmol Gd/5-8 μL of the PAMAM-G6 contrast agent into normal mammary glands or mammary tissue surrounding a tumor (peritumorally). Dynamic micro-MR images were obtained using a 1.5-Tesla superconductive magnet unit (Signa LX, General Electric Medical System, Milwaukee, Wis.) with a birdcage type coil of 3 cm diameter fixed by a custom made coil holder. Single and double “breast coils” used for imaging breasts in humans are commercially available, for example, from GE Medical Systems (Milwaukee, Wis.) and are routinely available in outpatient MRI centers. The mice were wrapped with gauze to stabilize their body temperature and were placed at the center of the coils.
In order to evaluate the lymphatic drainage from the normal mammary gland of either Balb/c mice (n=5) or athymic nu/nu mice (n=5), 3D-fast spoiled gradient echo (3D-fastSPGR (efgre3d package; Signa Horizon, GE); repetition time/echo time 19.2/7.2 msec; inversion time 47 msec; 31.2 kHz, flip angle 30°, 4 excitations; 36 slice encoding steps; scan time 4 min 49 seconds) with chemical shift fat-suppression was used 6, 12, 18, 24, 30, 36, 42, and 48 min after injection of the contrast agent. The coronal images were reconstructed with 0.6-mm section thickness every 0.3-mm. The field of view was 8×4 cm and the size of the matrix was 512×256. The slice data were processed into 3D images using the maximum intensity projection (MIP) method with the same window and level (window 3500 and level 2100) (Advantage Windows, General Electric Medical System). After imaging, the mice were sacrificed by carbon dioxide inhalation.
Athymic nu/nu mice (n=4) were anesthetized and injected with 0.15 μmol Gd of GPDM into the mammary gland, and images were taken 12, 24, and 36 min after injection. Following these three images, these mice were subsequently injected with 0.15 μmol Gd of PAMAM-G6 contrast agent in the mammary gland, and images were taken at 12 and 24 min post-injection of the PAMAM-G6 contrast agent (at 48 and 60 min post-injection of GPDM).

**Q.** With “PAMAM-G6D-(Gd-1B4M)256 dendrimer conjugate” as the substance, how does the “Visualized LNs/Total Examined LNs, Axillary LN” value (6 min after injection) read?
**A.** visualized at the initial (6 min) time point in all 10 mice and 10/10

**Q.** What about the “Visualized LNs/Total Examined LNs, Lateral thoracic LN” value (6 min after injection) of the same substance?
**A.** 0/10

**Q.** What about the “Visualized LNs/Total Examined LNs, Superficial cervical LN” value (6 min after injection) of the same substance?
**A.** 1/10

**Q.** And the “Visualized LNs/Total Examined LNs, Axillary LN” value (12 min after injection)?
**A.** 10/10

**Q.** And the “Visualized LNs/Total Examined LNs, Lateral thoracic LN” value (12 min after injection)?
**A.** 1/10

**Q.** What about the “Visualized LNs/Total Examined LNs, Superficial cervical LN” value (12 min after injection) of the same substance?
**A.** 1/10

**Q.** And the “Visualized LNs/Total Examined LNs, Axillary LN” value (18 min after injection)?
**A.** 10/10

**Q.** And the “Visualized LNs/Total Examined LNs, Lateral thoracic LN” value (18 min after injection)?
**A.** 2/10

**Q.** What about the “Visualized LNs/Total Examined LNs, Superficial cervical LN” value (18 min after injection) of the same substance?
**A.** 1/10

**Q.** And the “Visualized LNs/Total Examined LNs, Axillary LN” value (24 min after injection)?
**A.** 10/10

**Q.** And the “Visualized LNs/Total Examined LNs, Lateral thoracic LN” value (24 min after injection)?
**A.** 4/10

**Q.** What about the “Visualized LNs/Total Examined LNs, Superficial cervical LN” value (24 min after injection) of the same substance?
**A.** 2/10

**Q.** And the “Visualized LNs/Total Examined LNs, Axillary LN” value (30 min after injection)?
**A.** 10/10

**Q.** What about the “Visualized LNs/Total Examined LNs, Lateral thoracic LN” value (30 min after injection) of the same substance?
**A.** 4/10

**Q.** And the “Visualized LNs/Total Examined LNs, Superficial cervical LN” value (30 min after injection)?
**A.** 2/10

**Q.** And the “Visualized LNs/Total Examined LNs, Axillary LN” value (36 min after injection)?
**A.** 10/10

**Q.** And the “Visualized LNs/Total Examined LNs, Lateral thoracic LN” value (36 min after injection)?
**A.** 5/10

**Q.** And the “Visualized LNs/Total Examined LNs, Superficial cervical LN” value (36 min after injection)?
**A.** 3/10

**Q.** What about the “Visualized LNs/Total Examined LNs, Axillary LN” value (42 min after injection) of the same substance?
**A.** 10/10

**Q.** And the “Visualized LNs/Total Examined LNs, Lateral thoracic LN” value (42 min after injection)?
**A.** 6/10

**Q.** What about the “Visualized LNs/Total Examined LNs, Superficial cervical LN” value (42 min after injection) of the same substance?
**A.** 3/10

**Q.** And the “Visualized LNs/Total Examined LNs, Axillary LN” value (48 min after injection)?
**A.** 10/10

**Q.** What about the “Visualized LNs/Total Examined LNs, Lateral thoracic LN” value (48 min after injection) of the same substance?
**A.** 6/10

**Q.** What about the “Visualized LNs/Total Examined LNs, Superficial cervical LN” value (48 min after injection) of the same substance?
**A.** 3/10

**Q.** What about the “Visualization of draining lymph nodes and lymphatic vessels (FIG. 5)” value (athymic nu/nu mice, 0.15 μmol Gd into the mammary gland, GPDM imaged at 12, 24, 36 min, then PAMAM-G6) of the same substance?
**A.** clearly visualized
